Measurements as given in US6841569B2, “Carbamates of 2-heterocyclic-1,2-ethanediols” (SK Corporation, priority 2001, dated 2005).

Columns and labels:
[1] = system: mice (ICR strain); experiment: Maximal ElectroShock (MES) test; format: in vivo; details: dosed i.p., Hour 1, elimination of hindlimb tonic extension, 50 mA-60 Hz for 0.2 second
Method: The therapeutic use of the compounds of formula I as anticonvulsants has been established by the “Maximal ElectroShock (MES)” test, which is a well-established pharmacological screening method for anticonvulsants against partial seizures, and the results are presented in Table I. The procedure employed in the MES test for anticonvulsants is as follows. The dosing solutions of the compounds to be tested were prepared in saline. The subjects, namely, mice (ICR strain), were dosed i.p. After the designated number of hours, maximal electroshock was induced in mice via corneal electrodes using IITC Life Science model 11A Shocker at 50 mA-60 Hz for 0.2 second. […] Median efficacy dose (ED50) levels were determined using three different dose levels with at least 6 mice in each group.

SMILES | MES ED50 [1] [mg/kg] | melting point [°C]
CNC(=O)OCC(OC(=O)NC)c1ccc(Cl)s1 (stereo not drawn) [Example 7] | 37.4 | –
NC(=O)OCC(OC(N)=O)c1ccc(C(F)(F)F)s1 (stereo not drawn) [Example 14, (2-(5-trifluoromethyl-2-thienyl)-2-carbomoyloxyethyl)oxocarboxamide] | 12.6 | –
O=NC(=O)CC(O)c1cccs1 (stereo not drawn) [Example 21, (2-(2-thienyl)-2-hydroxyethyl)oxocarboxamide] | – | 71 to 73
